From patent publication US4555518A, “Fluoroalkoxy substituted benzimidazoles useful as gastric acid secretion inhibitors” (Byk Gulden Lomberg Chemische Fabrik GmbH, priority 1983, dated 1985)

Key:
[1] = test system: gastric lesion formation (rat stomach); assay: Shay rat: inhibition of gastric lesion formation induced by pyloric ligature and oral acetylsalicylic acid (protective effect on the stomach); format: in vivo; conditions: perorally, rats, 1 h before pyloric ligature, 4 h, 100 mg/kg acetylsalicylic acid, dose reducing lesion index by 50% vs control
Experimental: (§1) In these experiments, the compounds according to the invention were compared with prior art compounds (A-D) of European Patent Applications Nos. 0 005 129 and 0 074 341. The compounds investigated are numbered as follows: The influence of the compounds of the prior art and the compounds according to the invention on gastric lesion formation induced by pyloric ligature (4 h; so-called Shay rat) and oral administration of 100 mg/kg of acetylsalicyclic acid, and the gastric secretion (HCl) in the course of 4 h in rats is shown in the following table. | *ED25 and ED50 = dose which reduces the lesion index or the HCL | secretion(4h) in the rat stomach by 25 and, respectively, 50% in the | treated group in comparison with the control group. The antiulcerogenic action was tested by the so-called Shay rat method: Ulcers are caused in rats which have been fasted for 24 hours (female, 180-200 g, 4 animals per cage on a high grid) by pyloric ligature (under diethyl ether anesthesia) and oral administration of 100 mg/10 ml/kg of acetylsalicylic acid. The substances to be tested are administered orally (10 ml/kg) one hour before the pyloric ligature. The wound is closed by means of Michel clamps. 4 hours thereafter, the animals are sacrificed under ether anesthesia by Atlas dislocation and resection of the stomach. The stomach is opened longitudinally and attached to a cork plate, after the amount of gastric juice secreted (volume) and later its HCl content (titration with sodium hydroxide solution) have first been determined; the number and size (=diameter) of the ulcers present are determined under a stereomicroscope at 10-fold magnification. The product of the degree of severity (according to the following points scale) and number of ulcers serves as the individual lesion index. The reduction in the average lesion index of each treated group compared with the control group (=100%) serves as a measure of the antiulcerogenic effect.

[2] = test system: gastric secretion (HCl) (rat stomach); assay: Shay rat: inhibition of gastric secretion (HCl) in the course of 4 h; format: in vivo; conditions: for ED25 / ED50: Rattus norvegicus, po, perorally, rats; for ED25: dose reducing HCl secretion (4 h) by 25% vs control; for ED50: dose reducing HCl secretion (4 h) by 50% vs control; for Gastric secretion (rats): % inhibition of HCl secretion: after administration of the antiulcerous ED50, perorally, 4 h
Experimental: as §1, with “group. | **after administration of the antiulcerous ED50.” for “group.”

In the case of `COc1ccnc(C[S+]([O-])c2nc3cc(OC(F)(F)F)ccc3[nH]2)c1` (stereo not drawn) [Serial No. 1, 2-[(4-methoxy-2-pyridyl)methylsulfinyl]-5-trifluoromethoxy-1H-benzimidazole], the ED50 [1] is reported as 0.6 mg/kg, the ED25 [2] is reported as 0.5 mg/kg and the ED50 [2] is reported as 1.1 mg/kg. The “Gastric secretion (rats): % inhibition of HCl secretion” value (shortened to “Gastric secretion (rats): % inhibition”) [2] was 32%.
With `COc1ccnc(CSc2nc3cc(OC(F)(F)F)ccc3[nH]2)c1C` [Serial No. 2, 2-[(4-methoxy-3-methyl-2-pyridyl)methylthio]-5-trifluoromethoxy-1H-benzimidazole] the ED50 [1] was 0.3 mg/kg, the ED25 [2] was 0.35 mg/kg and the ED50 [2] was 0.5 mg/kg. For the same compound, the “Gastric secretion (rats): % inhibition” value [2] was 20%.
With `COc1ccnc(C[S+]([O-])c2nc3cc(OC(F)(F)F)ccc3[nH]2)c1C` (stereo not drawn) [Serial No. 3, 2-[(4-methoxy-3-methyl-2-pyridyl)methylsulfinyl]-5-trifluoromethoxy-1H-benzimidazole] the ED50 [1] was 0.3 mg/kg, the ED25 [2] was < 0.3 mg/kg and the ED50 [2] was 0.4 mg/kg. For the same compound, the “Gastric secretion (rats): % inhibition” value [2] was 32%.
In the case of `COc1cc(C[S+]([O-])c2nc3cc(OC(F)(F)F)ccc3[nH]2)ncc1C` (stereo not drawn) [Serial No. 4, 2-[(4-methoxy-5-methyl-2-pyridyl)methylsulfinyl]-5-trifluoromethoxy-1H-benzimidazole], the ED50 [1] is reported as 0.9 mg/kg, the ED25 [2] is reported as 0.6 mg/kg and the ED50 [2] is reported as 1.6 mg/kg. The “Gastric secretion (rats): % inhibition” value [2] was 32%.
`COc1ccnc(C[S+]([O-])c2nc3cc(OC(F)(F)C(F)F)ccc3[nH]2)c1` (stereo not drawn) [Serial No. 5, 2-[(4-methoxy-2-pyridyl)methylsulfinyl]-5-(1,1,2,2-tetrafluoroethoxy)-1H-benzimidazole] was tested, and the ED50 [1] was 0.7 mg/kg, the ED25 [2] was 0.5 mg/kg and the ED50 [2] was 1.2 mg/kg. For the same compound, the “Gastric secretion (rats): % inhibition” value [2] was 33%.
Work on `COc1ccnc(C[S+]([O-])c2nc3cc(OC(F)(F)C(F)F)ccc3[nH]2)c1C` (stereo not drawn) [Serial No. 6, 2-[(4-methoxy-3-methyl-2-pyridyl)methylsulfinyl]-5-(1,1,2,2-tetrafluoroethoxy)-1H-benzimidazole] yielded an ED50 [1] of 0.5 mg/kg, an ED25 [2] of 0.3 mg/kg and an ED50 [2] of 0.7 mg/kg. For the same compound, the “Gastric secretion (rats): % inhibition” value [2] was 35%.
For `COc1ccnc(CSc2nc3cc(OC(F)(F)C(F)F)ccc3[nH]2)c1C` [Serial No. 7, 2-[(4-methoxy-3-methyl-2-pyridyl)methylthio]-5-(1,1,2,2-tetrafluoroethoxy)-1H-benzimidazole], the ED50 [1] was 0.5 mg/kg, the ED25 [2] was 0.35 mg/kg and the ED50 [2] was 0.7 mg/kg. The “Gastric secretion (rats): % inhibition” value [2] was 40%.
`COc1c(C)cnc(C[S+]([O-])c2nc3cc(OC(F)(F)F)ccc3[nH]2)c1C` (stereo not drawn) [Serial No. 8, 2-[(4-methoxy-3,5-dimethyl-2-pyridyl)methylsulfinyl]-5-trifluoromethoxy-1H-benzimidazole] was tested, and the ED50 [1] was 0.4 mg/kg, the ED25 [2] was 1 mg/kg and the ED50 [2] was 1.5 mg/kg. The “Gastric secretion (rats): % inhibition” value [2] was 20%.
In the case of `COc1c(C)cnc(CSc2nc3cc(OC(F)(F)F)ccc3[nH]2)c1C` [Serial No. 9, 2-[(4-methoxy-3,5-dimethyl-2-pyridyl)methylthio]-5-trifluoromethoxy-1H-benzimidazole], the ED50 [1] is reported as 1 mg/kg, the ED25 [2] is reported as 1.4 mg/kg and the ED50 [2] is reported as 2 mg/kg. For the same compound, the “Gastric secretion (rats): % inhibition” value [2] was 10%.
Work on `COc1ccnc(C[S+]([O-])c2nc3cc(OCC(F)(F)F)ccc3[nH]2)c1C` (stereo not drawn) [Serial No. 10, 2-[(4-methoxy-3-methyl-2-pyridyl)methylsulfinyl]-5-(2,2,2-trifluoroethoxy)-1H-benzimidazole] yielded an ED50 [1] of 0.5 mg/kg, an ED25 [2] of 0.5 mg/kg and an ED50 [2] of 0.7 mg/kg. The “Gastric secretion (rats): % inhibition” value [2] was 25%.
`COc1ccnc(CSc2nc3cc(OCC(F)(F)F)ccc3[nH]2)c1C` [Serial No. 11, 2-[(4-methoxy-3-methyl-2-pyridyl)methylthio]-5-(2,2,2-trifluoroethoxy)-1H-benzimidazole] was tested, and the ED50 [1] was 0.5 mg/kg, the ED25 [2] was 0.5 mg/kg and the ED50 [2] was 0.7 mg/kg. The “Gastric secretion (rats): % inhibition” value [2] was 25%.
`COc1ccnc(C[S+]([O-])c2nc3cc(OC(F)F)ccc3[nH]2)c1C` (stereo not drawn) [Serial No. 12, 5-difluoromethoxy-2-[(4-methoxy-3-methyl-2-pyridyl)methylsulfinyl]-1H-benzimidazole] was tested, and the ED50 [1] was ~0.3 mg/kg, the ED25 [2] was ~0.3 mg/kg and the ED50 [2] was ~0.6 mg/kg. For the same compound, the “Gastric secretion (rats): % inhibition” value [2] was ~ 20%.
`COc1ccnc(C[S+]([O-])c2nc3cc(OC(F)F)c(OC(F)F)cc3[nH]2)c1` (stereo not drawn) [Serial No. 13, 5,6-bis(difluoromethoxy)-2-[(4-methoxy-2-pyridyl)methylsulfinyl]-1H-benzimidazole] showed an ED50 [1] of ~1.2 mg/kg, an ED25 [2] of ~1.1 mg/kg and an ED50 [2] of ~1.7 mg/kg. For the same compound, the “Gastric secretion (rats): % inhibition” value [2] was ~ 30%.
Work on `COc1ccnc(C[S+]([O-])c2nc3cc(OC(F)F)c(OC(F)F)cc3[nH]2)c1C` (stereo not drawn) [Serial No. 14, 5,6-bis(difluoromethoxy)-2-[(4-methoxy-3-methyl-2-pyridyl)methylsulfinyl]-1H-benzimidazole] yielded an ED50 [1] of 0.2 mg/kg, an ED25 [2] of ~0.3 mg/kg and an ED50 [2] of 0.6 mg/kg. For the same compound, the “Gastric secretion (rats): % inhibition” value [2] was 20%.
For `COc1ccnc(CSc2nc3cc(OC(F)F)c(OC(F)F)cc3[nH]2)c1C` [Serial No. 15, 5,6-bis(difluoromethoxy)-2-[(4-methoxy-3-methyl-2-pyridyl)methylthio]-1H-benzimidazole], the ED50 [1] was 0.6 mg/kg, the ED25 [2] was 0.5 mg/kg and the ED50 [2] was 1 mg/kg. The “Gastric secretion (rats): % inhibition” value [2] was 30%.
In the case of `COc1cc2[nH]c([S+]([O-])Cc3nccc(OC)c3C)nc2cc1OC(F)F` (stereo not drawn) [Serial No. 16, 5-difluoromethoxy-6-methoxy-2-[(4-methoxy-3-methyl-2-pyridyl)methylsulfinyl]-1H-benzimidazole], the ED50 [1] is reported as 0.2 mg/kg and the ED50 [2] is reported as ~0.8 mg/kg.
With `COc1cc2[nH]c(SCc3nccc(OC)c3C)nc2cc1OC(F)F` [Serial No. 17, 5-difluoromethoxy-6-methoxy-2-[(4-methoxy-3-methyl-2-pyridyl)methylthio]-1H-benzimidazole] the ED50 [1] was ~0.3 mg/kg, the ED25 [2] was ~0.3 mg/kg and the ED50 [2] was ~0.8 mg/kg. For the same compound, the “Gastric secretion (rats): % inhibition” value [2] was ~ 25%.
`COc1ccnc(C[S+]([O-])c2nc3cc(OC(F)(F)Cl)ccc3[nH]2)c1` (stereo not drawn) [Serial No. 18, 5-chlorodifluoromethoxy-2-[(4-methoxy-2-pyridyl)methylsulfinyl]-1H-benzimidazole] was tested, and the ED50 [1] was 1.3 mg/kg, the ED25 [2] was < 1 mg/kg and the ED50 [2] was 1.8 mg/kg. For the same compound, the “Gastric secretion (rats): % inhibition” value [2] was 35%.
`COc1ccc2[nH]c(SCc3ncc(C)c(OC)c3C)nc2c1` [Serial No. A, 5-methoxy-2-[(4-methoxy-3,5-dimethyl-2-pyridylmethyl)thio]-1H--benzimidazole, reference compound] showed an ED50 [1] of 9 mg/kg, an ED25 [2] of 12 mg/kg and an ED50 [2] of 25 mg/kg. For the same compound, the “Gastric secretion (rats): % inhibition” value [2] was 20%.
Compound `COc1ccc2[nH]c([S+]([O-])Cc3ncc(C)c(OC)c3C)nc2c1` (stereo not drawn) [Serial No. B, 5-methoxy-2-[(4-methoxy-3,5-dimethyl-2-pyridylmethyl)sulfinyl]-1H--benzimidazole, reference compound] has an ED50 [1] of 2.2 mg/kg, an ED25 [2] of 1.9 mg/kg and an ED50 [2] of 4.6 mg/kg. For the same compound, the “Gastric secretion (rats): % inhibition” value [2] was 29%.
`COc1ccc2[nH]c(SCc3cc(OC)c(C)cn3)nc2c1` [Serial No. C, 5-methoxy-2-[(4-methoxy-5-methyl-2-pyridylmethyl)thio]-1H--benzimidazole, reference compound] was tested, and the ED50 [1] was ~30 mg/kg and the ED25 [2] was > 60.6 mg/kg.
For `COc1ccc2[nH]c([S+]([O-])Cc3cc(OC)c(C)cn3)nc2c1` (stereo not drawn) [Serial No. D, 5-methoxy-2-[(4-methoxy-5-methyl-2-pyridylmethyl)sulfinyl]-1H--benzimidazole, reference compound], the ED50 [1] was ~5 mg/kg, the ED25 [2] was 8 mg/kg and the ED50 [2] was 18 mg/kg. The “Gastric secretion (rats): % inhibition” value [2] was 10%.
